Laboratory results from PubChem BioAssay AID248 (DTP/NCI, 2004).
Several values for one entry are separate records, joined by “and”; a condition that tells them apart may be missing. Equal values may be shown once. Toxic doses and inconclusive results are not listed. Cut-off read from the data, not from the text of the source: active = T/C of 150% or more; inactive = T/C below 125%.

Test system: L1210 leukemia ip in BDF1 mice, survival T/C
Assay: NCI In Vivo Anticancer Drug Screen. Data for tumor model L1210 Leukemia (intraperitoneal) in B6D2F1 (BDF1) mice
Details: higher = longer survival
Procedure, shortened: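 Survival endpoint. Drug-treated group vs vehicle group, expressed as T divided by C. Tumor passaged by transplantation.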

[1] = endpoint: mean survival time, dose: 50.0 mg/kg/injection, schedule: Q01DX001 (ip), vehicle: saline
[2] = endpoint: mean survival time, dose: 100.0 mg/kg/injection, schedule: Q01DX001 (ip), vehicle: saline
[3] = endpoint: mean survival time, dose: 200.0 mg/kg/injection, schedule: Q01DX001 (ip), vehicle: saline
[4] = endpoint: mean survival time, dose: 400.0 mg/kg/injection, schedule: Q01DX001 (ip), vehicle: saline

Measured: T/C

NN1C(=O)c2c(Cl)c(Cl)c(Cl)c(Cl)c2C1=O
inactive: endpoint: mean survival time, dose: 100.0 mg/kg/injection, schedule: Q01DX001 (ip), vehicle: saline with Tween-80 87 % of control | endpoint: mean survival time, dose: 200.0 mg/kg/injection, schedule: Q01DX001 (ip), vehicle: saline with Tween-80 87 % of control | endpoint: mean survival time, dose: 400.0 mg/kg/injection, schedule: Q01DX001 (ip), vehicle: saline with Tween-80 93 % of control

Cc1cn(C2SC(CO)C(O)C2O)c(=O)[nH]c1=O (stereo not drawn)
inactive: [1] 97 % of control | [2] 105 % of control | [3] 100 % of control | [4] 100 % of control

COC(=O)C1OC1c1ccc2c(c1)OCO2 (stereo not drawn)
inactive: endpoint: mean survival time, dose: 88.8 mg/kg/injection, schedule: Q01DX001 (ip), vehicle: carboxymethylcellulose (CMC) 97 % of control and 98 % of control | endpoint: mean survival time, dose: 133.4 mg/kg/injection, schedule: Q01DX001 (ip), vehicle: carboxymethylcellulose (CMC) 95 % of control and 106 % of control | endpoint: mean survival time, dose: 200.0 mg/kg/injection, schedule: Q01DX001 (ip), vehicle: carboxymethylcellulose (CMC) 95 % of control and 97 % of control | endpoint: mean survival time, dose: 300.0 mg/kg/injection, schedule: Q01DX001 (ip), vehicle: carboxymethylcellulose (CMC) 93 % of control and 101 % of control

Oc1ccc(Br)cc1-c1nc2cc3ccccc3cc2nc1-c1cc(Br)ccc1O
inactive: [2] 103 % of control | [3] 96 % of control | [4] 94 % of control

CC1(C)NCC(=O)N1C(Cc1ccccc1)C(=O)O (stereo not drawn)
inactive: [2] 100 % of control | [3] 97 % of control | [4] 100 % of control

CCOC(=O)C(CCc1ccccn1)C(C)=O (stereo not drawn)
inactive: endpoint: mean survival time, dose: 100.0 mg/kg/injection, schedule: Q01DX009 (ip), vehicle: saline 97 % of control | endpoint: mean survival time, dose: 200.0 mg/kg/injection, schedule: Q01DX009 (ip), vehicle: saline 107 % of control | endpoint: mean survival time, dose: 400.0 mg/kg/injection, schedule: Q01DX009 (ip), vehicle: saline 102 % of control

Cc1cc(C(=O)CCC(=O)O)c(C)s1
inactive: endpoint: mean survival time, dose: 100.0 mg/kg/injection, schedule: Q01DX009 (ip), vehicle: gum acacia 97 % of control | endpoint: mean survival time, dose: 100.0 mg/kg/injection, schedule: Q04DX003 (ip), vehicle: gum acacia 102 % of control | endpoint: mean survival time, dose: 200.0 mg/kg/injection, schedule: Q01DX009 (ip), vehicle: gum acacia 90 % of control | endpoint: mean survival time, dose: 200.0 mg/kg/injection, schedule: Q04DX003 (ip), vehicle: gum acacia 96 % of control | endpoint: mean survival time, dose: 400.0 mg/kg/injection, schedule: Q01DX009 (ip), vehicle: gum acacia 101 % of control | endpoint: mean survival time, dose: 400.0 mg/kg/injection, schedule: Q04DX003 (ip), vehicle: gum acacia 101 % of control

CN(C)C1(C(=O)O)c2ccccc2-c2ccccc21
inactive: [1] 100 % of control | [2] 100 % of control | [3] 97 % of control

c1ccn2nnnc2c1
inactive: endpoint: mean survival time, dose: 100.0 mg/kg/injection, schedule: Q01DX001 (ip), vehicle: other 97 % of control | endpoint: mean survival time, dose: 200.0 mg/kg/injection, schedule: Q01DX001 (ip), vehicle: other 94 % of control

O=C(O)c1n[nH]nc1[N+](=O)[O-]
inactive: endpoint: mean survival time, dose: 75.0 mg/kg/injection, schedule: Q01DX001 (ip), vehicle: saline 96 % of control | endpoint: mean survival time, dose: 150.0 mg/kg/injection, schedule: Q01DX001 (ip), vehicle: saline 105 % of control | endpoint: mean survival time, dose: 300.0 mg/kg/injection, schedule: Q01DX001 (ip), vehicle: saline 98 % of control

ClCc1ccc2c(c1)OCO2
inactive: endpoint: mean survival time, dose: 100.0 mg/kg/injection, schedule: Q04DX003 (ip), vehicle: Klucel (hydroxypropylcellulose) (HPC) 104 % of control | endpoint: mean survival time, dose: 200.0 mg/kg/injection, schedule: Q04DX003 (ip), vehicle: Klucel (hydroxypropylcellulose) (HPC) 101 % of control | endpoint: mean survival time, dose: 400.0 mg/kg/injection, schedule: Q04DX003 (ip), vehicle: Klucel (hydroxypropylcellulose) (HPC) 98 % of control

CCCCC[CH2][Sn]([CH2]C)([CH2]C)[CH2]C
inactive: endpoint: mean survival time, dose: 100.0 mg/kg/injection, schedule: Q04DX002 (ip), vehicle: saline 93 % of control | endpoint: mean survival time, dose: 200.0 mg/kg/injection, schedule: Q04DX002 (ip), vehicle: saline 93 % of control

CCC/C=N/NC(=O)CCCCCCCCCCCCCCCCC
inactive: endpoint: mean survival time, dose: 100.0 mg/kg/injection, schedule: Q01DX009 (ip), vehicle: Klucel (hydroxypropylcellulose) (HPC) 86 % of control | endpoint: mean survival time, dose: 200.0 mg/kg/injection, schedule: Q01DX009 (ip), vehicle: Klucel (hydroxypropylcellulose) (HPC) 88 % of control | endpoint: mean survival time, dose: 400.0 mg/kg/injection, schedule: Q01DX009 (ip), vehicle: Klucel (hydroxypropylcellulose) (HPC) 88 % of control

CCC(CCNC(=O)c1ccccc1)(CCNC(=O)c1ccccc1)[N+](=O)[O-]
inactive: [2] 95 % of control | [3] 106 % of control | [4] 92 % of control

CC/C(=C(/CC)c1ccc(O)cc1)c1ccc(O)cc1
inactive: endpoint: mean survival time, dose: 6.44 mg/kg/injection, schedule: Q01DX Z (sc), vehicle: steriod suspending solution 98 % of control | endpoint: mean survival time, dose: 12.88 mg/kg/injection, schedule: Q01DX Z (sc), vehicle: steriod suspending solution 109 % of control | endpoint: mean survival time, dose: 25.0 mg/kg/injection, schedule: Q01DX009 (ip), vehicle: carboxymethylcellulose (CMC) 87 % of control | endpoint: mean survival time, dose: 25.75 mg/kg/injection, schedule: Q01DX Z (sc), vehicle: steriod suspending solution 107 % of control | [1] 90 % of control | endpoint: mean survival time, dose: 50.0 mg/kg/injection, schedule: Q01DX009 (ip), vehicle: carboxymethylcellulose (CMC) 94 % of control | endpoint: mean survival time, dose: 51.5 mg/kg/injection, schedule: Q01DX Z (sc), vehicle: steriod suspending solution 100 % of control | [2] 94 % of control | endpoint: mean survival time, dose: 100.0 mg/kg/injection, schedule: Q01DX009 (ip), vehicle: carboxymethylcellulose (CMC) 95 % of control | [3] 95 % of control | endpoint: mean survival time, dose: 200.0 mg/kg/injection, schedule: Q01DX009 (ip), vehicle: carboxymethylcellulose (CMC) 91 % of control | [4] 87 % of control | endpoint: median survival time, dose: 8.0 mg/kg/injection, schedule: Q03HX016 (ip), vehicle: saline with Tween-80 97 % of control | endpoint: median survival time, dose: 8.0 mg/kg/injection, schedule: Q03HX024 (ip), vehicle: saline with Tween-80 98 % of control | endpoint: median survival time, dose: 12.5 mg/kg/injection, schedule: Q01DX009 (sc), vehicle: steriod suspending solution 100 % of control and 111 % of control | endpoint: median survival time, dose: 16.0 mg/kg/injection, schedule: Q01DX009 (ip), vehicle: saline with Tween-80 113 % of control | endpoint: median survival time, dose: 16.0 mg/kg/injection, schedule: Q03HX008 (ip), vehicle: saline with Tween-80 101 % of control | endpoint: median survival time, dose: 16.0 mg/kg/injection, schedule: Q03HX016 (ip), vehicle: saline with Tween-80 97 % of control | endpoint: median survival time, dose: 16.0 mg/kg/injection, schedule: Q03HX024 (ip), vehicle: saline with Tween-80 91 % of control | endpoint: median survival time, dose: 25.0 mg/kg/injection, schedule: Q01DX009 (sc), vehicle: steriod suspending solution 100 % of control and 106 % of control | endpoint: median survival time, dose: 32.0 mg/kg/injection, schedule: Q01DX009 (ip), vehicle: saline with Tween-80 110 % of control | endpoint: median survival time, dose: 32.0 mg/kg/injection, schedule: Q03HX008 (ip), vehicle: saline with Tween-80 97 % of control | endpoint: median survival time, dose: 32.0 mg/kg/injection, schedule: Q03HX016 (ip), vehicle: saline with Tween-80 97 % of control | endpoint: median survival time, dose: 32.0 mg/kg/injection, schedule: Q03HX024 (ip), vehicle: saline with Tween-80 98 % of control | endpoint: median survival time, dose: 50.0 mg/kg/injection, schedule: Q01DX009 (sc), vehicle: steriod suspending solution 100 % of control and 105 % of control | endpoint: median survival time, dose: 64.0 mg/kg/injection, schedule: Q01DX009 (ip), vehicle: saline with Tween-80 103 % of control | endpoint: median survival time, dose: 64.0 mg/kg/injection, schedule: Q03HX008 (ip), vehicle: saline with Tween-80 103 % of control | endpoint: median survival time, dose: 64.0 mg/kg/injection, schedule: Q03HX016 (ip), vehicle: saline with Tween-80 100 % of control | endpoint: median survival time, dose: 64.0 mg/kg/injection, schedule: Q03HX024 (ip), vehicle: saline with Tween-80 94 % of control | endpoint: median survival time, dose: 64.0 mg/kg/injection, schedule: Q04DX003 (ip), vehicle: saline with Tween-80 100 % of control | endpoint: median survival time, dose: 64.0 mg/kg/injection, schedule: Q08DX002 (ip), vehicle: saline with Tween-80 106 % of control | endpoint: median survival time, dose: 100.0 mg/kg/injection, schedule: Q01DX009 (sc), vehicle: steriod suspending solution 100 % of control and 105 % of control | endpoint: median survival time, dose: 128.0 mg/kg/injection, schedule: Q01DX001 (ip), vehicle: saline with Tween-80 107 % of control | endpoint: median survival time, dose: 128.0 mg/kg/injection, schedule: Q01DX009 (ip), vehicle: saline with Tween-80 102 % of control | endpoint: median survival time, dose: 128.0 mg/kg/injection, schedule: Q04DX003 (ip), vehicle: saline with Tween-80 101 % of control | endpoint: median survival time, dose: 128.0 mg/kg/injection, schedule: Q08DX002 (ip), vehicle: saline with Tween-80 104 % of control | endpoint: median survival time, dose: 256.0 mg/kg/injection, schedule: Q01DX001 (ip), vehicle: saline with Tween-80 109 % of control | endpoint: median survival time, dose: 256.0 mg/kg/injection, schedule: Q04DX003 (ip), vehicle: saline with Tween-80 107 % of control | endpoint: median survival time, dose: 256.0 mg/kg/injection, schedule: Q08DX002 (ip), vehicle: saline with Tween-80 98 % of control | endpoint: median survival time, dose: 512.0 mg/kg/injection, schedule: Q01DX001 (ip), vehicle: saline with Tween-80 108 % of control | endpoint: median survival time, dose: 512.0 mg/kg/injection, schedule: Q08DX002 (ip), vehicle: saline with Tween-80 92 % of control | endpoint: median survival time, dose: 1024.0 mg/kg/injection, schedule: Q08DX002 (ip), vehicle: saline with Tween-80 102 % of control | endpoint: median survival time, dose: 2048.0 mg/kg/injection, schedule: Q08DX002 (ip), vehicle: saline with Tween-80 102 % of control
